What was measured:
Format in all cases: in vivo
Details in all cases: 25 mg/kg
C57BL/KsBom-db/db mice [1] = experiment: Blood glucose profile of db/db mice during daily treatment (antihyperglycemic activity)
Description: (§1) C57BL/KsBom-db/db mice (12-18 weeks old), weighing around 35+g bred in the animal house of CDRI, Lucknow, were used in the present experiments. The mice were housed in groups of 3 to 5 (same sex) in a room controlled for temperature (23±2.0 ° C.) and 12/12 hours light/dark cycle (lights on at 6.00 am). Body weight of each animal was measured daily from day 1 to day 10 of the experiment. All animals had free access to fresh water and normal pellet diet except on the day of the postprandial protocol (day 6) and during the overnight fast before the OGTT on day 10. The animals always had access to water during experimental periods. Blood glucose was checked every morning up till day 10. On day 10 an oral glucose tolerance test (OGTT) was performed after an overnight fasting. Blood glucose was measured at −30.0 min and test compounds were administered. The blood glucose was again measured at 0 min just post treatment and at this juncture glucose solution was given at a dose of 3 gm/kg to all the groups including the vehicle treated group. The blood glucose levels were checked at 30 min, 60 min, 90 min and 120 min post glucose administration. The data was analyzed for its significance on Prism software.

C57BL/KsBom-db/db mice [2] = experiment: Serum lipid profile of treated db/db mice (antidyslipidemic activity)
Description: as §1

C57BL/KsBom-db/db mice [3] = experiment: Oral glucose tolerance test (OGTT) on day 10 in db/db mice
Description: as §1

## CC(C)NCC(O)COc1ccc2c(=O)cc(-c3cc(O)cc(O)c3)oc2c1 (stereo in doubt) [S-002-857 (R), (R)-(−)-7-(2-Hydroxy-3-isopropylaminopropoxy)-3′,5′-dihydroxy flavone]
C57BL/KsBom-db/db mice [1]
  blood glucose profile compared to sham treated (in words): marginal fall in blood glucose profile
C57BL/KsBom-db/db mice [1]; day 1
  Blood glucose, day 1 post treatment: 12.5 ± 2.55 mM
C57BL/KsBom-db/db mice [1]; day 1, vs sham
  Blood glucose % change compared to control, day 1: 0.0%
C57BL/KsBom-db/db mice [1]; day 2
  Blood glucose, day 2 post treatment: 12.3 ± 2.67 mM
C57BL/KsBom-db/db mice [1]; day 2, vs sham
  Blood glucose % change compared to control, day 2: −1.25%
C57BL/KsBom-db/db mice [1]; day 3
  Blood glucose, day 3 post treatment: 12.1 ± 2.02 mM
C57BL/KsBom-db/db mice [1]; day 3, vs sham
  Blood glucose % change compared to control, day 3: −3.28%
C57BL/KsBom-db/db mice [1]; day 4
  Blood glucose, day 4 post treatment: 11.5 ± 1.86 mM
C57BL/KsBom-db/db mice [1]; day 4, vs sham
  Blood glucose % change compared to control, day 4: −11.5%
C57BL/KsBom-db/db mice [1]; day 5
  Blood glucose, day 5 post treatment: 11.9 ± 2.74 mM
C57BL/KsBom-db/db mice [1]; day 5, vs sham
  Blood glucose % change compared to control, day 5: −13.1%
C57BL/KsBom-db/db mice [1]; day 6
  Blood glucose, day 6 post treatment: 11.6 ± 2.73 mM
C57BL/KsBom-db/db mice [1]; day 6, vs sham
  Blood glucose % change compared to control, day 6: −10.7%
C57BL/KsBom-db/db mice [1]; day 7
  Blood glucose, day 7 post treatment: 11.7 ± 1.78 mM
C57BL/KsBom-db/db mice [1]; day 7, vs sham
  Blood glucose % change compared to control, day 7: −22.0%
C57BL/KsBom-db/db mice [1]; day 8
  Blood glucose, day 8 post treatment: 11.0 ± 0.35 mM
C57BL/KsBom-db/db mice [1]; day 8, vs sham
  Blood glucose % change compared to control, day 8: −13.4%
C57BL/KsBom-db/db mice [1]; day 9
  Blood glucose, day 9 post treatment: 11.5 ± 1.00 mM
C57BL/KsBom-db/db mice [1]; day 9, vs sham
  Blood glucose % change compared to control, day 9: −14.0%
C57BL/KsBom-db/db mice [1]; day 10
  Blood glucose, day 10 post treatment: 11.9 ± 5.21 mM
C57BL/KsBom-db/db mice [1]; day 10, vs sham
  Blood glucose % change compared to control, day 10: −8.30%
C57BL/KsBom-db/db mice [2]
  Serum lipid profile: Cholesterol: 160 ± 6.66 mg/dL
  Serum lipid profile: HDL-Chol: 59.0 ± 2.65 mg/dL
  Serum lipid profile: Triglycerides: 130 ± 3.06 mg/dL
  serum cholesterol, triglycerides (lipid profile) compared to sham treated (in words): no statistically significant difference
C57BL/KsBom-db/db mice [2]; vs sham
  Cholesterol % change compared to control: −6.18%
  HDL-Chol % change compared to control: +5.35%
  Triglycerides % change compared to control: −1.72%
C57BL/KsBom-db/db mice [3]
  oral glucose tolerance compared to sham treated (in words): slight improvement in glucose tolerance
C57BL/KsBom-db/db mice [3]; OGTT day 10, 0 min
  Blood glucose profile, 0 min post glucose load: 16.3 ± 3.91 mM
C57BL/KsBom-db/db mice [3]; OGTT day 10, 0 min, vs sham
  Blood glucose % change compared to control, 0 min post glucose load: −7.05%
C57BL/KsBom-db/db mice [3]; OGTT day 10, 30 min
  Blood glucose profile, 30 min post glucose load: 27.6 ± 1.53 mM
C57BL/KsBom-db/db mice [3]; OGTT day 10, 30 min, vs sham
  Blood glucose % change compared to control, 30 min post glucose load: −16.7%
C57BL/KsBom-db/db mice [3]; OGTT day 10, 60 min
  Blood glucose profile, 60 min post glucose load: 24.4 ± 2.99 mM
C57BL/KsBom-db/db mice [3]; OGTT day 10, 60 min, vs sham
  Blood glucose % change compared to control, 60 min post glucose load: −10.0%
C57BL/KsBom-db/db mice [3]; OGTT day 10, 90 min
  Blood glucose profile, 90 min post glucose load: 20.6 ± 2.08 mM
C57BL/KsBom-db/db mice [3]; OGTT day 10, 90 min, vs sham
  Blood glucose % change compared to control, 90 min post glucose load: −7.39%
C57BL/KsBom-db/db mice [3]; OGTT day 10, 120 min
  Blood glucose profile, 120 min post glucose load: 16.0 ± 1.73 mM
C57BL/KsBom-db/db mice [3]; OGTT day 10, 120 min, vs sham
  Blood glucose % change compared to control, 120 min post glucose load: −14.3%
C57BL/KsBom-db/db mice [3]; OGTT day 10, −30 min
  Blood glucose profile, −30 min post glucose load: 11.8 ± 5.21 mM
C57BL/KsBom-db/db mice [3]; OGTT day 10, −30 min, vs sham
  Blood glucose % change compared to control, −30 min post glucose load: −8.31%
